Laboratory results as given in US20240246954A1, “COMPOSITIONS AND METHODS FOR INHIBITING KRAS” (TheRas, Inc., priority 2021, published 2024).

Assays:
[1] = biological target: T1, Avi-KRAS G12D/Q25A (1-169) GppNHp/3×FLAG-PI3KCA (157-299) (Homo sapiens, UniProt P01116, G12D/Q25A); test: HTRF PI3KCA-KRAS G12D/Q25A-GppNHp disruption assay; format: biochemical; details: 1 h incubation
T1 construct: Avi-KRAS G12D/Q25A (1-169) GppNHp
In short: (§1)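 HTRF read-out (320 nm excitation, 615 nm emission) after two 1 h room-temperature incubations, first with protein mix, then detection reagents. Ten-point dilution series starting at 100 μM; results given as % activity relative to DMSO at 100%.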

[2] = biological target: T2, Avi-KRAS G12D (1-169) GppNHp/RAF1 RBD-3×FLAG (52-151) (Homo sapiens, UniProt P01116, G12D); test: HTRF Raf1-KRAS G12D-GppNHp disruption assay; format: biochemical; details: 1 h incubation
T2 construct: Avi-KRAS G12D (1-169) GppNHp
T2 sequence (P01116 1-169 isoform P01116-2 G12D limits assumed): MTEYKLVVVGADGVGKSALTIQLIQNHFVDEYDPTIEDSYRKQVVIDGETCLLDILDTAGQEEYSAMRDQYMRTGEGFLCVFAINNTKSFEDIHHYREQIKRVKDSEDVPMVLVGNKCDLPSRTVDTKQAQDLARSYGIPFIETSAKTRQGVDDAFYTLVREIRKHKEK
In short: as §1

T1 sequence (P01116 1-169 isoform P01116-2 G12D/Q25A limits assumed): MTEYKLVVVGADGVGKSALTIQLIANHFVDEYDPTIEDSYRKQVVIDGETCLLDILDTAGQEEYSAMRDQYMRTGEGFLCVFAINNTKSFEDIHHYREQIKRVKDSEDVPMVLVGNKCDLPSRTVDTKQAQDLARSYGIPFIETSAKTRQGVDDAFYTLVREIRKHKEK

Structure (SMILES)	IC50 [1] [µM]	IC50 [2] [µM]
CN(c1nc(OCC23CCCN2CC(C)(C)C3)nc2c(F)c(-c3ccc(F)c4sc(N)nc34)c(C(F)(F)F)cc12)C1CNC1 (stereo not shown) [Compound 201]	10 to 30	10 to 30
CN(c1nc(OC[C@@H]2CC(F)(F)CN2C)nc2c(F)c(-c3ccc(F)c4sc(N)nc34)c(C(F)(F)F)cc12)C1CNC1 [Compound 204]	10 to 30	10 to 30
CN1CCC[C@H]1COc1nc(N(CCO)C2CNC2)c2cc(Cl)c(-c3ccc(F)c4sc(N)nc34)c(F)c2n1 [Compound 208]	10 to 30	10 to 30
C[C@@H]1CNCCN1c1nc(OC[C@]23CCCN2C[C@H](F)C3)nc2c(F)c(-c3ccc(F)c4sc(N)nc34)c(C(F)(F)F)cc12 [Compound 209]	1 to 10	0.1 to 1
C[C@@H]1CN(c2nc(OC[C@]34CCCN3C[C@H](F)C4)nc3c(F)c(-c4ccc(F)c5sc(N)nc45)c(C(F)(F)F)cc23)CCN1 [Compound 210]	10 to 30	1 to 10
C[C@@H]1CN(c2nc(OC[C@@]34CCCN3C[C@H](F)C4)nc3c(F)c(-c4ccc(F)c5sc(N)nc45)c(C(F)(F)F)cc23)CCN1 [Compound 212]	1 to 10	0.1 to 1
C[C@@H]1CN(c2nc(OC[C@]34CCCN3C[C@H](F)C4)nc3c(F)c(-c4ccc(F)c5sc(N)nc45)c(C(F)(F)F)cc23)[C@@H](C)CN1 [Compound 214]	10 to 30	0.1 to 1
C[C@@H]1CN(c2nc(OC[C@]34CCCN3C[C@H](F)C4)nc3c(F)c(-c4ccc(F)c5sc(N)nc45)c(C(F)(F)F)cc23)C[C@H](C)N1 [Compound 215]	10 to 30	1 to 10
C[C@H]1CNCCN1c1nc(OC[C@@]23CCCN2C[C@@H](F)C3)nc2c(F)c(-c3ccc(F)c4sc(N)nc34)c(C(F)(F)F)cc12 [Compound 222]	10 to 30	1 to 10
C[C@@H]1CN(c2nc(OC[C@@]34CCCN3C[C@@H](F)C4)nc3c(F)c(-c4ccc(F)c5sc(N)nc45)c(C(F)(F)F)cc23)[C@@H](C)CN1 [Compound 224]	10 to 30	10 to 30
C[C@@H]1CN(c2nc(OC[C@@]34CCCN3C[C@@H](F)C4)nc3c(F)c(-c4ccc(F)c5sc(N)nc45)c(C(F)(F)F)cc23)CCN1 [Compound 225]	10 to 30	1 to 10
C[C@@H]1CN(c2nc(OC[C@@]34CCCN3C[C@@H](F)C4)nc3c(F)c(-c4ccc(F)c5sc(N)nc45)c(C(F)(F)F)cc23)C[C@H](C)N1 [Compound 229]	10 to 30	10 to 30
CN(c1nc(OCC23CCCN2CCC3)nc2c(F)c(-c3ccc(F)c4sc(N)nc34)c(C(F)(F)F)cc12)[C@@H]1CCN(C(=O)C2CN2)C1 (stereo partly shown) [Compound 230]	1 to 10	1 to 10
Nc1nc2c(-c3c(OC(F)(F)F)cc4c(N5CC6CCC(C5)N6)nc(OC[C@@]56CCCN5C[C@H](F)C6)nc4c3F)ccc(F)c2o1 [Compound 233]	1 to 10	1 to 10
Nc1nc2c(-c3c(C(F)(F)F)cc4c(NC5CN(C(=O)C6CN6)C5)nc(OCC56CCCN5CCC6)nc4c3F)ccc(F)c2s1 (stereo not shown) [Compound 235]	10 to 30	1 to 10
Nc1nc2c(-c3c(-c4ccoc4)cc4c(N5CC6CCC(C5)N6)nc(OC[C@@]56CCCN5C[C@H](F)C6)nc4c3F)ccc(F)c2s1 [Compound 237]	1 to 10	0.1 to 1
Nc1nc2c(-c3c(C(F)(F)F)cc4c(N5CC6CC5CN6)nc(OC[C@@]56CCCN5C[C@H](F)C6)nc4c3F)ccc(F)c2s1 (stereo partly shown) [Compound 239]	1 to 10	1 to 10
Nc1nc2c(-c3c(OC(F)(F)F)cc4c(N5CC6CC5CN6)nc(OC[C@@]56CCCN5C[C@H](F)C6)nc4c3F)ccc(F)c2s1 (stereo partly shown) [Compound 240]	1 to 10	1 to 10
Nc1nc2c(-c3c(Cl)cc4c(N5CCCNCC5)ncnc4c3F)ccc(F)c2s1 [Compound 242]	10 to 30	10 to 30
Nc1nc2c(-c3c(Cl)cc4c(N5CC6CNC(C6)C5)ncnc4c3F)ccc(F)c2s1 (stereo not shown) [Compound 243]	10 to 30	10 to 30
CN1CC(C)(C)C[C@H]1COc1nc(N2CC3CCC(C2)N3)c2cc(C(F)(F)F)c(-c3ccc(F)c4sc(N)nc34)c(F)c2n1 [Compound 253]	1 to 10	1 to 10
CN(c1nc(OCC23CCCN2CCC3)nc2c(F)c(-c3ccc(F)c4sc(N)nc34)c(C(F)(F)F)cc12)C1CC2CC[C@@H](C1)N2 (stereo partly shown) [Compound 268]	1 to 10	1 to 10
NCC(=O)N1C2CCC1CN(c1nc(OC[C@@]34CCCN3C[C@H](F)C4)nc3c(F)c(-c4ccc(F)c5sc(N)nc45)c(C(F)(F)F)cc13)C2 [Compound 272]	1 to 10	0.1 to 1
NC(=O)N1C2CCC1CN(c1nc(OC[C@@]34CCCN3C[C@H](F)C4)nc3c(F)c(-c4ccc(F)c5sc(N)nc45)c(C(F)(F)F)cc13)C2 [Compound 273]	1 to 10	1 to 10
COc1cc2c(N3C[C@@H](C)NC[C@@H]3C)nc(OC[C@@]34CCCN3C[C@H](F)C4)nc2c(F)c1-c1ccc(F)c2sc(N)nc12 [Compound 281, 4-(4-((2S,5R)-2,5-dimethylpiperazin-1-yl)-8-fluoro-2-(((2R,7aS)-2-fluorotetrahydro-1H-pyrrolizin-7a(5H)-yl)methoxy)-6-methoxyquinazolin-7-yl)-7-fluorobenzo[d]thiazol-2-amine]	10 to 30	10 to 30

Continued, values first:

IC50 [1] [µM]	IC50 [2] [µM]	Structure (SMILES)
1 to 10	1 to 10	CC1(C)CN2CCCC2(COc2nc(N3CCNCC3)c3cc(C(F)(F)F)c(-c4ccc(F)c5sc(N)nc45)c(F)c3n2)C1 (stereo not shown) [Compound 198]
1 to 10	0.1 to 1	NCC(=O)N1CC[C@@H]2[C@H]1CN2c1nc(OCC23CCCN2CCC3)nc2c(F)c(-c3ccc(F)c4sc(N)nc34)c(C(F)(F)F)cc12 [Compound 202]
10 to 30	10 to 30	CN1CCC[C@H]1COc1nc(N2CCNCC2)c2cc(C3(C#N)CCC3)c(-c3ccc(F)c4sc(N)nc34)c(F)c2n1 [Compound 203, 1-[7-(2-amino-7-fluoro-1,3-benzothiazol-4-yl)-8-fluoro-2-[[(2S)-1-methylpyrrolidin-2-yl]methoxy]-4-piperazin-1-yl-quinazolin-6-yl]cyclobutanecarbonitrile]
10 to 30	10 to 30	Cc1cc2c(N3CCNCC3)nc(OC[C@@H]3CCCN3C)nc2c(F)c1-c1ccc(F)c2sc(N)nc12 [Compound 205]
1 to 10	0.1 to 1	Nc1nc2c(-c3c(C(F)(F)F)cc4c(N5CCNCC5)nc(OC[C@@]56CCCN5C[C@H](F)C6)nc4c3F)ccc(F)c2s1 [Compound 206]
10 to 30	1 to 10	Nc1nc2c(-c3c(C(F)(F)F)cc4c(N5CCNCC5)nc(OCC56CCCN5CC(F)(F)C6)nc4c3F)ccc(F)c2s1 (stereo not shown) [Compound 211]
1 to 10	1 to 10	COc1cc2c(N3CCNCC3)nc(OCC34CCCN3CCC4)nc2c(F)c1-c1ccc(F)c2sc(N)nc12 [Compound 216, 7-fluoro-4-(8-fluoro-6-methoxy-4-(piperazin-1-yl)-2-((tetrahydro-1H-pyrrolizin-7a(5H)-yl)methoxy)quinazolin-7-yl)benzo[d]thiazol-2-amine]
1 to 10	1 to 10	CN1CCC[C@H]1COc1nc(N2CCNCC2)c2cc(C(F)F)c(-c3ccc(F)c4sc(N)nc34)c(F)c2n1 [Compound 217, 4-(6-(difluoromethyl)-8-fluoro-2-(((S)-1-methylpyrrolidin-2-yl)methoxy)-4-(piperazin-1-yl)quinazolin-7-yl)-7-fluorobenzo[d]thiazol-2-amine]
1 to 10	1 to 10	Nc1nc2c(-c3c(C(F)F)cc4c(N5CCNCC5)nc(OCC56CCCN5CCC6)nc4c3F)ccc(F)c2s1 [Compound 227]
1 to 10	1 to 10	Nc1nc2c(-c3c(OC(F)(F)F)cc4c(N5CCNCC5)nc(OCC56CCCN5CCC6)nc4c3F)ccc(F)c2s1 [Compound 228, 7-fluoro-4-(8-fluoro-4-(piperazin-1-yl)-2-((tetrahydro-1H-pyrrolizin-7a(5H)-yl)methoxy)-6-(trifluoromethoxy)quinazolin-7-yl)benzo[d]thiazol-2-amine]
1 to 10	1 to 10	Nc1nc2c(-c3c(OC(F)(F)F)cc4c(N5CC6CCC(C5)N6)nc(OCC56CCCN5CCC6)nc4c3F)ccc(F)c2s1 [Compound 231]
1 to 10	1 to 10	Nc1nc2c(-c3c(OC(F)F)cc4c(N5CCNCC5)nc(OCC56CCCN5CCC6)nc4c3F)ccc(F)c2s1 [Compound 234, 4-(6-(difluoromethoxy)-8-fluoro-4-(piperazin-1-yl)-2-((tetrahydro-1H-pyrrolizin-7a(5H)-yl)methoxy)quinazolin-7-yl)-7-fluorobenzo[d]thiazol-2-amine]
1 to 10	1 to 10	Nc1nc2c(-c3c(C(F)(F)F)cc4c(NC5CC6CC[C@@H](C5)N6)nc(OCC56CCCN5CCC6)nc4c3F)ccc(F)c2s1 (stereo partly shown) [Compound 263]
1 to 10	0.1 to 1	Nc1nc2c(-c3c(C(F)(F)F)cc4c(NC5CC6CC[C@H]5N6)nc(OCC56CCCN5CCC6)nc4c3F)ccc(F)c2s1 (stereo partly shown) [Compound 265]
1 to 10	0.1 to 1	Nc1nc2c(-c3c(C(F)(F)F)cc4c(NC5CC6CC[C@H]5N6)nc(OCC56CCCN5CCC6)nc4c3F)ccc(F)c2s1 (stereo partly shown) [Compound 266]
1 to 10	1 to 10	CN(c1nc(OCC23CCCN2CCC3)nc2c(F)c(-c3ccc(F)c4sc(N)nc34)c(C(F)(F)F)cc12)C1CCNCC1 [Compound 280]
